Results taken from PMC9320067, “Novel Potent and Selective Agonists of the GPR55 Receptor Based on the 3-Benzylquinolin-2(1H)-One Scaffold” (Pharmaceuticals, 2022).

biological target: T1, hGPR55 (Homo sapiens, UniProt Q9Y2T6); experiment: p-ERK1/2 activation, in-cell Western, CHO cells expressing hGPR55; format: cell-based; details: not given
T1 construct: host or cells: CHO-K1
Description: Downstream signaling by hGPR55 was investigated by quantifying p-ERK activation in the in-cell Western assay.
Cells were seeded at approximately 2000 cells/well in 96-well plates and treated with 0.1–10 μM compounds for 30 min and were then fixed for 10 min at room temperature with 4% paraformaldehyde. Cells were washed 3 times with 100 μL 1X PBS for 5 min each. Cells were incubated with blocking solution (PBS, 20% Odyssey blocking buffer, and 0.1% TritonX-100) for 1 h at room temperature. Next, cells were exposed to primary antibodies for p-ERK1/2(T202/Y204) (mouse monoclonal IgG, Cat# sc-136521) or ERK1/2 (rabbit polyclonal IgG, Cat# sc-292838) (Santa Cruz Biotechnology, Santa Cruz, CA) diluted (1:200) in blocking solution overnight at 4 °C. Cells were washed 3 times with 100 μL PBS for 5 min each. Cells were exposed to the secondary antibodies goat polyclonal anti-rabbit IgG IR^Dye800-conjugated antibody diluted 1:500 (Li-Cor Biosciences, IgG, Cat# P/S 926-32210, RRID AB-2687825, lot# C50113-18) and goat polyclonal anti-mouse IgG IR^Dye680-conjugated antibody diluted 1:500 (Li-Cor Biosciences, IgG, Cat# P/N 925-68070, RRID AB-2651128, lot# C50113-17) for 1 h at room temperature. Cells were washed 3 times with 100 μL PBS for 5 min each. Analyses were conducted using the Odyssey Imaging system and software (version 3.0; Li-Cor).
(§1) Data for p-ERK in-cell westerns are shown as fold over vehicle response (i.e., 1). Estimates of Ki, EC50 and Emax were determined using non-linear regression (3 parameters) (GraphPad, Prism, v. 9.0). p < 0.05 was determined to be significant.

T1 sequence (Q9Y2T6 whole entry): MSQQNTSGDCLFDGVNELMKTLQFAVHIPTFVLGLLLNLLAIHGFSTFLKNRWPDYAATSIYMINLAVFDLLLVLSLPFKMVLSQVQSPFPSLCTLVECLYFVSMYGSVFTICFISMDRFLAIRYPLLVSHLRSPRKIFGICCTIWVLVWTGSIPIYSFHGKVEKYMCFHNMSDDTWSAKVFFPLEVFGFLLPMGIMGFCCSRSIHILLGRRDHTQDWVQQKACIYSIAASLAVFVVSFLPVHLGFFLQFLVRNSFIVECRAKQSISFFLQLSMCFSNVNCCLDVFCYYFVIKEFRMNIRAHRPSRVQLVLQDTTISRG

SMILES	EC50
CCCCCCC(C)(C)c1ccc([C@@H]2C[C@H](O)CC[C@H]2CCCO)c(O)c1 [CP55,940, reference compound]	4.2 nM

same assay, conditions: CHO cells expressing hGPR55, 30 min treatment; mean (95% CI), n = 6; read-out: EC50 95% CI, p-ERK1/2 activation

SMILES	EC50
CCCCc1cc(OC)c2cc(Cc3ccccc3OC)c(=O)[nH]c2c1 [Compound 1, 7-n-Butyl-5-methoxy-3-(2-methoxybenzyl)quinolin-2(1H)-one]	6.4 nM
CCCCc1cc(O)c2cc(Cc3ccccc3O)c(=O)n(C)c2c1 [Compound 4, 7-n-Butyl-5-hydroxy-3-(2-hydroxybenzyl)-1-methylquinolin-2(1H)-one]	11 nM
CCCCc1cc(O)c2cc(Cc3ccccc3O)c(=O)[nH]c2c1 [Compound 3, 7-n-Butyl-5-hydroxy-3-(2-hydroxybenzyl)quinolin-2(1H)-one]	1.4 nM
C=C(C)[C@@H]1CCC(C)=C[C@H]1c1c(C)cc(O)cc1O [Compound O-1602, O-1602, reference compound]	61 nM
CCCCc1cc(OC)c2cc(Cc3ccccc3OC)c(=O)n(C)c2c1 [Compound 2, 7-n-Butyl-5-methoxy-3-(2-methoxybenzyl)-1-methylquinolin-2(1H)-one]	1.1 nM

same assay, conditions: fold over vehicle; CHO cells expressing hGPR55, 30 min; mean ± SEM, n = 6

SMILES	Emax, p-ERK1/2 activation
CCCCc1cc(OC)c2cc(Cc3ccccc3OC)c(=O)[nH]c2c1 [Compound 1, 7-n-Butyl-5-methoxy-3-(2-methoxybenzyl)quinolin-2(1H)-one]	1.5 ± 0.06 Fold
CCCCc1cc(O)c2cc(Cc3ccccc3O)c(=O)n(C)c2c1 [Compound 4, 7-n-Butyl-5-hydroxy-3-(2-hydroxybenzyl)-1-methylquinolin-2(1H)-one]	1.3 ± 0.03 Fold
CCCCc1cc(O)c2cc(Cc3ccccc3O)c(=O)[nH]c2c1 [Compound 3, 7-n-Butyl-5-hydroxy-3-(2-hydroxybenzyl)quinolin-2(1H)-one]	1.2 ± 0.04 Fold
C=C(C)[C@@H]1CCC(C)=C[C@H]1c1c(C)cc(O)cc1O [Compound O-1602, O-1602, reference compound]	1.3 ± 0.03 Fold
CCCCc1cc(OC)c2cc(Cc3ccccc3OC)c(=O)n(C)c2c1 [Compound 2, 7-n-Butyl-5-methoxy-3-(2-methoxybenzyl)-1-methylquinolin-2(1H)-one]	1.4 ± 0.07 Fold

biological target: T2, human CB2R (Homo sapiens, UniProt P34972); experiment: [3H]CP55,940 radioligand displacement assay on hCB2R CHO cell membranes; format: binding; details: not given
T2 construct: host or cells: CHO-K1
T2 sequence (P34972 whole entry): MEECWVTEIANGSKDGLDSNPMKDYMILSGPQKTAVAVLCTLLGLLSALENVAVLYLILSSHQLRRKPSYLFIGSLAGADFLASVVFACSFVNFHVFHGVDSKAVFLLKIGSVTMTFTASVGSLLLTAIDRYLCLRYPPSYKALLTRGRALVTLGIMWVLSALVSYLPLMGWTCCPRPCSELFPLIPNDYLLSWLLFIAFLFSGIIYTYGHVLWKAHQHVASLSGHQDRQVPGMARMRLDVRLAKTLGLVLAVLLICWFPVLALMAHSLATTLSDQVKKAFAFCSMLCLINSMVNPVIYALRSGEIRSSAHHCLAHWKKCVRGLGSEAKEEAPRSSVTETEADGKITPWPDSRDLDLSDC
Description: (§2) Assays were performed as described previously and summarized here. […] Binding was initiated by the addition of transfected hGPR55, hCB1R or hCB2R CHO cell membranes (25 μg protein per well). All assays were performed at 37°C for 120 min prior to quenching with ice-cold Tris binding buffer followed by vacuum filtration using a 24-well sampling manifold (Brandel Cell Harvester; Brandel, Inc., Gaithersburg, MD, USA) and Brandel GF/B filters. Each reaction well was washed six times with 1.2 mL aliquots of Tris-binding buffer. The filters were air-dried overnight and then placed in 5 mL of scintillation fluid (Ultima Gold XR, Perkin Elmer, Inc., Waltham, MA, USA). Liquid scintillation spectrometry was used for quantifying radioactivity.
as §1

SMILES	Ki
CCCCc1cc(OC)c2cc(Cc3ccccc3OC)c(=O)[nH]c2c1 [Compound 1, 7-n-Butyl-5-methoxy-3-(2-methoxybenzyl)quinolin-2(1H)-one]	> 10000 nM
CCCCc1cc(O)c2cc(Cc3ccccc3O)c(=O)n(C)c2c1 [Compound 4, 7-n-Butyl-5-hydroxy-3-(2-hydroxybenzyl)-1-methylquinolin-2(1H)-one]	7.9 nM
CCCCc1cc(O)c2cc(Cc3ccccc3O)c(=O)[nH]c2c1 [Compound 3, 7-n-Butyl-5-hydroxy-3-(2-hydroxybenzyl)quinolin-2(1H)-one]	> 10000 nM
CCCCc1cc(OC)c2cc(Cc3ccccc3OC)c(=O)n(C)c2c1 [Compound 2, 7-n-Butyl-5-methoxy-3-(2-methoxybenzyl)-1-methylquinolin-2(1H)-one]	6.9 nM

tested on: not given; experiment: not given; details: not given

SMILES	melting point
CCCCc1cc(OC)c2cc(Cc3ccccc3OC)c(=O)[nH]c2c1 [Compound 1, 7-n-Butyl-5-methoxy-3-(2-methoxybenzyl)quinolin-2(1H)-one]	208 to 210 °C
CCCCc1cc(O)c2cc(Cc3ccccc3O)c(=O)n(C)c2c1 [Compound 4, 7-n-Butyl-5-hydroxy-3-(2-hydroxybenzyl)-1-methylquinolin-2(1H)-one]	223 to 225 °C
CCCCc1cc(O)c2cc(Cc3ccccc3O)c(=O)[nH]c2c1 [Compound 3, 7-n-Butyl-5-hydroxy-3-(2-hydroxybenzyl)quinolin-2(1H)-one]	252 to 254 °C
CCCCc1cc(OC)c2cc(Cc3ccccc3OC)c(=O)n(C)c2c1 [Compound 2, 7-n-Butyl-5-methoxy-3-(2-methoxybenzyl)-1-methylquinolin-2(1H)-one]	78 to 80 °C

biological target: T1, hGPR55; experiment: [3H]CP55,940 radioligand displacement assay on hGPR55 CHO cell membranes; format: binding; details: not given
Description: as §2, §1

SMILES	Ki
CCCCCCC(C)(C)c1ccc([C@@H]2C[C@H](O)CC[C@H]2CCCO)c(O)c1 [CP55,940, reference compound]	13 nM

same assay, conditions: read-out: Ki hGPR55

SMILES	Ki
CCCCc1cc(OC)c2cc(Cc3ccccc3OC)c(=O)[nH]c2c1 [Compound 1, 7-n-Butyl-5-methoxy-3-(2-methoxybenzyl)quinolin-2(1H)-one]	14 nM
CCCCc1cc(O)c2cc(Cc3ccccc3O)c(=O)n(C)c2c1 [Compound 4, 7-n-Butyl-5-hydroxy-3-(2-hydroxybenzyl)-1-methylquinolin-2(1H)-one]	7.1 nM
CCCCc1cc(O)c2cc(Cc3ccccc3O)c(=O)[nH]c2c1 [Compound 3, 7-n-Butyl-5-hydroxy-3-(2-hydroxybenzyl)quinolin-2(1H)-one]	6.2 nM
C=C(C)[C@@H]1CCC(C)=C[C@H]1c1c(C)cc(O)cc1O [Compound O-1602, O-1602, reference compound]	10 nM
CCCCc1cc(OC)c2cc(Cc3ccccc3OC)c(=O)n(C)c2c1 [Compound 2, 7-n-Butyl-5-methoxy-3-(2-methoxybenzyl)-1-methylquinolin-2(1H)-one]	1.2 nM

biological target: T3, human CB1R (Homo sapiens, UniProt P21554); experiment: [3H]CP55,940 radioligand displacement assay on hCB1R CHO cell membranes; format: binding; details: not given
T3 construct: HitHunter) 95-0071C2; host or cells: CHO-K1
T3 sequence (P21554 whole entry): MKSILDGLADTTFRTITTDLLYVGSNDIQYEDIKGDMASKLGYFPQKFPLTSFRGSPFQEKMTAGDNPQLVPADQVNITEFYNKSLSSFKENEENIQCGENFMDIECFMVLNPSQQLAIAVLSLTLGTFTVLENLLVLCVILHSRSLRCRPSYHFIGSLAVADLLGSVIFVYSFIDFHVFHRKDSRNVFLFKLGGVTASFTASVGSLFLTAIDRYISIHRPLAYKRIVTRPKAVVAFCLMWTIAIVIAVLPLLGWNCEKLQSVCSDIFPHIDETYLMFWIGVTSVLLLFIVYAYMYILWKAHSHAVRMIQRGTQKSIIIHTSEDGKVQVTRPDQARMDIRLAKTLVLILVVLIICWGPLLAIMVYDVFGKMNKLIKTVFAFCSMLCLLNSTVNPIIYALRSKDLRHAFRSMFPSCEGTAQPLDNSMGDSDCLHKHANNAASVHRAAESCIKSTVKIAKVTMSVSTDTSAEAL
Description: as §2, §1

SMILES	Ki
CCCCc1cc(OC)c2cc(Cc3ccccc3OC)c(=O)[nH]c2c1 [Compound 1, 7-n-Butyl-5-methoxy-3-(2-methoxybenzyl)quinolin-2(1H)-one]	> 10000 nM
CCCCc1cc(O)c2cc(Cc3ccccc3O)c(=O)n(C)c2c1 [Compound 4, 7-n-Butyl-5-hydroxy-3-(2-hydroxybenzyl)-1-methylquinolin-2(1H)-one]	29 nM
CCCCc1cc(O)c2cc(Cc3ccccc3O)c(=O)[nH]c2c1 [Compound 3, 7-n-Butyl-5-hydroxy-3-(2-hydroxybenzyl)quinolin-2(1H)-one]	5.1 nM
CCCCc1cc(OC)c2cc(Cc3ccccc3OC)c(=O)n(C)c2c1 [Compound 2, 7-n-Butyl-5-methoxy-3-(2-methoxybenzyl)-1-methylquinolin-2(1H)-one]	> 10000 nM
